The test system of one assay is liver hepatocyte growth. As to the kind of experiment: in vivo inhibition of TGFα-stimulated liver hepatocyte growth in male rats (Test (c)). The conditions noted are these: Rattus norvegicus, po. How it is done: (c) An in vivo assay in a group of male rats which determines the ability of a test compound (usually administered orally as a ball-milled suspension in 0.5% polysorbate) to inhibit the stimulation of liver hepatocyte growth caused by the administration of the growth factor TGFα (400 μg/kg subcutaneously, usually dosed twice, 3 and 7 hours respectively after the administration of the test compound).
In a control group of rats, the administration of TGFα causes on average a 5-fold stimulation of liver hepatocyte growth.
Cell-growth in the control and test animals is determined as follows:
On the morning of the day after the dosing of the test compound (or 0.5% polysorbate in the control group), the animals are dosed with bromodeoxyuridine (BrdU; 100 mg/kg intraperitoneally). The animals are killed four hours later and the livers are excised.
Further tests were carried out using a range of doses of the test compounds to allow the calculation of an approximate ED50 value for the inhibition of liver hepatocyte proliferation as determined by inhibition of the uptake of BrdU.

Assay [1] has as its system human naso-pharyngeal cancer cell line KB. Put plainly: in vitro inhibition of the growth of the human naso-pharyngeal cancer cell line KB (Test (b)). It is filed as cell-based. To be noted: 72 h, KB cells, EGF (10 ng/ml), 3 days, MTT. The procedure: (b) An in vitro assay which determines the ability of a test compound to inhibit the growth of the human naso-pharyngeal cancer cell line KB.
KB cells were seeded into wells at a density of 1×10^4 -1.5×10^4 cells per well and grown for 24 hours in DMEM supplemented with 5% FCS (charcoal-stripped). Cell growth was determined after incubation for 3 days by the extent of metabolism of MTT tetrazolium dye to furnish a bluish colour. Cell growth was then determined in the presence of EGF (10 ng/ml) or in the presence of EGF (10 ng/ml) and a test compound at a range of concentrations. An IC50 value could then be calculated.

The next assay addresses T1, receptor tyrosine kinase (Homo sapiens, UniProt P00533).
T1 construct: Receptor tyrosine kinase was obtained in partially purified form from A-431 cells; endogenous in cells; host or cells: A-431 cells (human vulval carcinoma), Triton X-100 solubilised membrane extract
As to the kind of experiment: in vitro inhibition of the enzyme receptor tyrosine kinase (Test (a)). In kind it is biochemical. The conditions noted are these: enzyme from A-431 cells, EGF stimulated. How it is done: (a) An in vitro assay which determines the ability of a test compound to inhibit the enzyme receptor tyrosine kinase. Receptor tyrosine kinase was obtained in partially purified form from A-431 cells (derived from human vulval carcinoma) by procedures related to those described by Carpenter et. al., J. Biol. Chem., 1979, 254, 4884, Cohen et al., J. Biol. Chem., 1982, 257, 1523 and by Braun et al., J. Biol. Chem., 1984, 259, 2051.
A-431 cells were grown to confluence using Dulbecco's modified Eagle's medium (DMEM) containing 5% fetal calf serum (FCS). The obtained cells were homogenised in a hypotonic borate/EDTA buffer at pH 10.1. The homogenate was centrifuged at 400 g for 10 minutes at 0°-4° C. The supernatant was centrifuged at 25,000 g for 30 minutes at 0°-4° C. The pelleted material was suspended in 30 mM Hepes buffer at pH 7.4 containing 5% glycerol, 4 mM benzamidine and 1% Triton X-100, stirred for 1 hour at 0°-4° C., and recentrifuged at 100,000 g for 1 hour at 0°-4° C. The supernatant, containing solubilised receptor tyrosine kinase, was stored in liquid nitrogen.
For test purposes 40 μl of the enzyme solution so obtained was added to a mixture of 400 μl of a mixture of 150 mM Hepes buffer at pH 7.4, 500 μM sodium orthovanadate, 0.1% Triton X-100, 10% glycerol, 200 μl water, 80 μl of 25 mM DTT and 80μl of a mixture of 12.5 mM manganese chloride, 125 mM magnesium chloride and distilled water. There was thus obtained the test enzyme solution. […]
The test compound/EGF mixture solution (5 μl) was added to the test enzyme solution (10 μl) and the mixture was incubated at 0°-4° C. for 30 minutes. […] Radioactivity present in the filter paper was measured using a liquid scintillation counter (Sequence A). […]
Receptor tyrosine kinase inhibition was calculated as follows: [formula]
The extent of inhibition was then determined at a range of concentrations of test compound to give an IC50 value.

The test system of assay [2] is another carcinoma which does not express EGF receptor tyrosine kinase. The conditions noted are these: Toi et al., 1990; cited from earlier work.
Assay [3] concerns human mammary carcinoma which expresses epidermal growth factor (EGF) receptor tyrosine kinase. To be noted: athymic nude mice; Toi et al., 1990; cited from earlier work.

T1 sequence (P00533 25-1210): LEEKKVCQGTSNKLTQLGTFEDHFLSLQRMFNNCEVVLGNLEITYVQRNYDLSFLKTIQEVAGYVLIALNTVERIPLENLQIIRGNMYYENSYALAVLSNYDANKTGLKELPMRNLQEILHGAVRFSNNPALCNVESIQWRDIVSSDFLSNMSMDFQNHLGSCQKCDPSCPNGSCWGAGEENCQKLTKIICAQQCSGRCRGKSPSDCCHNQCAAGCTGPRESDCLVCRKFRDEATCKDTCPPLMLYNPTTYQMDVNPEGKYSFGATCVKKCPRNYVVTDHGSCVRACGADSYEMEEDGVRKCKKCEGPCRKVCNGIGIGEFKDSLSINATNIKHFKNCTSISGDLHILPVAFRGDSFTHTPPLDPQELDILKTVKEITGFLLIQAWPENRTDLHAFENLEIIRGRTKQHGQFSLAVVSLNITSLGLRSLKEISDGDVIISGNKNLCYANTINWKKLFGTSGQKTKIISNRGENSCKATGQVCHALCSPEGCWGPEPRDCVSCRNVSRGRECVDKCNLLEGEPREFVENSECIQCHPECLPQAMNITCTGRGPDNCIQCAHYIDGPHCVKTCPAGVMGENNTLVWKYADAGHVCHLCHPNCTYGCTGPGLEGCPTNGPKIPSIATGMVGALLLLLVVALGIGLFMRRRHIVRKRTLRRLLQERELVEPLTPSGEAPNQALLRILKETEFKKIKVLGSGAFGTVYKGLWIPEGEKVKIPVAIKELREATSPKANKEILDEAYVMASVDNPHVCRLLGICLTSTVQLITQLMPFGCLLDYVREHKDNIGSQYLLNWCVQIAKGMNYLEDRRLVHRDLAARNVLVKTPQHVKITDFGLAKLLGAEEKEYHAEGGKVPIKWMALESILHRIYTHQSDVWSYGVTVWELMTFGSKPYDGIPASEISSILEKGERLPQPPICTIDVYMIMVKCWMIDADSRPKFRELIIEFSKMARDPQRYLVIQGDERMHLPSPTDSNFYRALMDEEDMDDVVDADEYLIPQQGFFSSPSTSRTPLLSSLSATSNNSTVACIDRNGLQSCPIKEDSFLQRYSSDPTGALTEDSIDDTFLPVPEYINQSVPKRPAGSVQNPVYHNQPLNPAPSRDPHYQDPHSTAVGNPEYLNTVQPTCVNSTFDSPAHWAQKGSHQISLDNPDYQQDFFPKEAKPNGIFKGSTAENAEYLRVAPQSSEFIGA
T1 sequence (P01133 971-1023 partner limits assumed): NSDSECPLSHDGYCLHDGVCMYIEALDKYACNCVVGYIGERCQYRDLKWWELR

For the compound `COc1cc2c(Nc3ccc(F)c(Cl)c3)ncnc2cc1F` [4-(3'-chloro-4'-fluoroanilino)-7-fluoro-6-methoxyquinazoline], the ED50 (in general, the dose that gives a 50% effect, or the effect in half of the subjects) in the assay with liver hepatocyte growth was below 12.5 mg/kg. The half-inhibitory concentration (IC50) – broadly, the point on the concentration scale where inhibition reaches its midpoint – in assay [1] was determined as 530 nM; against receptor tyrosine kinase, 70 nM.
Consider `Cc1cccc(Nc2ncnc3cc(F)c(NC(=O)CCl)cc23)c1` [6-(2-chloroacetamido)-7-fluoro-4-(3'-methylanilino)quinazoline], for which the IC50 is 20 nM in assay [1] and 10 nM against receptor tyrosine kinase.
In turn, `Cc1cccc(Nc2ncnc3cc(F)c(N)cc23)c1` [6-amino-7-fluoro-4-(3'-methylanilino)quinazoline] showed a median effective dose (ED50) in the assay on liver hepatocyte growth below 40 mg/kg. The 50% inhibitory concentration (IC50) in assay [1] turned out to be 680 nM; on receptor tyrosine kinase, 75 nM.
In the case of `O=CN/C=C/c1cc(O)ccc1O` [erbstatin], in assay [2], the “growth of another carcinoma which does not express EGF receptor tyrosine kinase” value is “without effect on the growth”. In assay [3], the “growth of transplanted human mammary carcinoma expressing EGF receptor tyrosine kinase” value was “specifically attenuates the growth”.
